Where “and” joins values, the source holds several entries; their conditions need not be identical. Identical values can stand only once. Entries after “also recorded” stand apart in the source; their conditions may differ. Like-named read-outs stand apart in the source and are kept apart here.
Legend:
MDA-MB-231 cells [1] = assay: Cell cycle progression by flow cytometry (PI), MDA-MB-231; assay type: cell-based, human; details: 250 nM; listed as MBQ-167
Experimental: Effect of MBQ-167 on cell survival.
MDA-MB-231 cells were incubated with 0 or 250 nM MBQ-167 for 48 h and all cells (detached and attached) were stained with PI, as in (27). Cell cycle stage was analyzed using a four-color flow cytometer (FACSCalibur, BD Biosciences, San Jose, Calif.). A total of 20,000 events were analyzed for each sample. List-mode files were collected using Cell Quest software 3.3 and analyzed using the Flow Jo software vX.0.7 (BD Biosciences, San Jose, Calif.).

[2] = system: Saccharomyces cerevisiae (expresses only Cdc42); assay: Yeast bud polarity and growth; details: 100 microM
Cdc42 = Cdc42 (Homo sapiens, UniProt P60953); assay: Cdc42 activation pulldown (p21-binding domain of PAK) and western blot, MDA-MB-231 cells; assay type: cell-based; design: endogenous in cells; host or cells: MDA-MB-231; details: 24 h, detached cells
Sequence of Cdc42 (P60953 whole entry, the tested form may be a part): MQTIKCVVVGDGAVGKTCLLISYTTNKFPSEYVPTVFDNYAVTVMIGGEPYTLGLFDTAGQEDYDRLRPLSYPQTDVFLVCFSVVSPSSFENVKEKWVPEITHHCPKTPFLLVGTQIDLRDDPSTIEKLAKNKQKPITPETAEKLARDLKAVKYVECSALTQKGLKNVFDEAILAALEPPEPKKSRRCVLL

[3] = Liver enzyme assays (ALP, ALT) after necropsy; assay type: in vivo, nude mice; details: listed as MBQ-167
Text: . Mammary fatpad tumors were established in nude mice by inoculating 5×10^5 GFP-HER2-BM cells; […]; FIG. 6B, Representative fluorescence micrographs of lungs, spleens, and kidneys from vehicle or MBQ-167 treated mice following necropsy; […]; Following necropsy, livers were harvested, lysed and subjected to FIG. 6D, ALP activity or FIG. 6E, ALT activity assays; N=4, error bars represent ±S.E.M.
The mice from this study were also examined once a week for potential toxicity. […]. At necropsy, livers were harvested, lysed and subjected to liver enzyme assays as a test for potential toxic effects. […]. Frozen stored livers were thawed and homogenized to measure alkaline phosphatase (ALP) and alanine transaminase (ALT) activities using colorimetric assay kits from Abeam and Cayman Chemicals respectively, as per manufacturer's instructions.

STAT3 = assay: Western blot of STAT3 phosphorylation (Y705); assay type: cell-based, human; details: 24 h, attached and detached MDA-MB-231 and GFP-HER2-BM cells
Text: FIGS. 12A, 12B. Effect of MBQ-167 on STAT3 activation and cell migration in GFP-HER2-BM metastatic cancer cells.

PAK1 and PAK2 = assay: Western blot of PAK signaling (p-PAK, p-LIMK, p-cofilin), MDA-MB-231; assay type: cell-based, human; details: for reduction of PAK activity compared to vehicle: MDA-MB-231 and GFP-HER2-BM
Experimental: To investigate the effect of MBQ-167 on Rac/Cdc42 signaling, its effect on the major Rac/Cdc42 downstream effector PAK was investigated. The phosphorylation status of several PAK residues was analyzed by western blotting, as a measure of its activity. At 250 nM, 24 h treatment with MBQ-167 inhibited PAK1 and PAK2 phosphorylation at the T423/T402 and S199/S192 residues in the detached population of MDA-MB-231 cells. […] Even though PAK1^T423 phosphorylation was not inhibited in the attached cells, the reduction in the homologous PAK2 phosphorylation sites indicates a preferential inhibition of PAK2 in the attached cells (FIGS. 4A-1, 4A-2, FIG. 4B-1). […] The decrease in cofilin phosphorylation was evident after 12 h following 250 nM MBQ-167 (FIG. 4C), indicating activation of cofilin, which account for the observed actin cytoskeletal restructuring (FIG. 2B). […] Similarly, in the NCI-N87 human metastatic gastric cancer cell line, MBQ-167 inhibited the viability and the activity of PAK isoforms PAK1 and PAK4, which have been implicated in gastric cancer malignancy (FIG. 8B).

MDA-MB-231 cells [4] = assay: Bright field microscopy of cell polarity, rounding and detachment, MDA-MB-231; assay type: cell-based, human
Experimental: FIGS. 2A, 2B, 2C. Breast cancer cell phenotype following MBQ-167 treatment.
Human breast cancer cells were visualized by bright field microscopy following MBQ-167 treatment. At ≥100 nM, starting at six hours, MBQ-167 induced a loss of polarity in metastatic breast cancer cells. […] On the other hand, non-cancer mammary epithelial MCF10A and epithelial breast cancer MCF-7 cells were resistant to MBQ-167 and remained polarized and attached to each other and the substratum (FIG. 2A).
FIG. 2A; FIG. 2B. […] At ≥100 nM, starting at six hours MBQ-167 induces a loss of polarity and detachment from the substratum in MDA-MB-231 metastatic breast cancer cells but not in MCF-7 non-metastatic human breast cancer cells. 250 nM MBQ-167 results in ˜70% of the cells losing polarity and assuming a rounded phenotype. Higher concentrations of MBQ-167, i.e. 500 nM for 24 h results in a ˜90% loss in cell polarity and detaches from the substratum.

[5] = Cell viability assay (CellTiter 96 / MTT), MDA-MB-231; details: human
MDA-MB-231 cells [6] = assay: as above
Rac = Rac activation pulldown (p21-binding domain of PAK) and western blot, MDA-MB-231 cells; assay type: cell-based, human; details: for decrease in Rac activation: 250 nM, 24 h; for inhibition in Rac activity: 250 or 500 nM, 6 h
Rho = Rho activation pulldown (Rho binding domain of Rhotekin) and western blot, MDA-MB-231 cells; assay type: cell-based, human; details: MDA-MB-231, 250 nM; listed as MBQ-167
Experimental: Additionally, Rac, Cdc42, or […] activation was determined, by pulldowns using the P21-binding domain (PBD) of PAK, or Rho binding domain of Rhotekin as described (2, 16). The GTP bound active Rac, Cdc42, or Rho was detected by Western blot (N=3).

CCn1c2ccccc2c2cc(-n3nncc3-c3ccccc3)ccc21 [I-1, 9-ethyl-3-(5-phenyl-1H-1,2,3-triazol-1-yl)-9H-carbazole]
effect on cell cycle (MDA-MB-231 cells [1]): significantly arrested the cell cycle of MDA-MB-231 cells in the G2/M phase; also recorded: G2/M phase arrest | effect on yeast bud polarity and growth [2]: inhibited yeast bud polarity and growth | inhibition of Cdc42 activity (Cdc42; 250 nM, listed as MBQ-167, […]): 85% | inhibition at […] (Cdc42; MDA-MB-231, 250 nM): 78% | liver ALT activity ([3]; 10 mg/kg BW): significantly increased; also recorded: increases | liver ALP activity ([3]; 1 and 10 mg/kg BW): does not significantly affect | effect on STAT3 activity (STAT3): decreased STAT3 activity | LIMK (Y507/T508) and cofilin (S3) phosphorylation (PAK1 and PAK2; 250 nM): both decreased | phosphorylation of PAK1 S144 (PAK1 and PAK2; 250 nM, 24 h): dramatic increase | PAK1 and PAK2 phosphorylation at T423/T402 and S199/S192 (PAK1 and PAK2; 250 nM, 24 h, detached population): inhibited | reduction of PAK activity compared to vehicle (PAK1 and PAK2; attached population): ~25% | reduction of PAK activity compared to vehicle (PAK1 and PAK2; detached cells): 90% | cells losing polarity and assuming a rounded phenotype (MDA-MB-231 cells [4]; 250 nM): ~70% | cell rounding / loss of polarity and detachment from the substratum (MDA-MB-231 cells [4]; 500 nM, 24 h, listed as MBQ-167): ~90% and ~95% | concentration inducing loss of polarity (MDA-MB-231 cells [4]; starting at six hours): ≥ 100 nM | viability at 24 h, 5 µM ([5]; MDA-MB-231, GFP-HER2-BM, MCF-7 and MCF-10 cells): ~75% | viability at 24 h, 0.3 µM ([5]; MDA-MB-231 cells): 100% | cell death (MDA-MB-231 cells [6]; 1000 nM, 120 h, all cell types (MDA-MB-231, GFP-HER2-BM, MCF10A)): ~100% | GI50 (MDA-MB-231 cells [6]; 120 h, listed as MBQ-167): 0.11 µM | GI50 (MDA-MB-231 cells [6]; Homo sapiens, MDA-MB-231, 120 h, 120 h): ~0.13 µM | GI50 (MDA-MB-231 cells [6]; Homo sapiens, MDA-MB-231, read-out: GI50 (μM) MDA-MB-231, MDA-MB-231): 0.128 µM | decrease in Rac activation (Rac; attached cells): ~25% | decrease in Rac activation (Rac; detached cells): ~75% | inhibition in Rac activity (Rac; attached cell population): 10-20% | inhibition in Rac activity (Rac; detached population): 40-50% | effect on Rho activation (Rho): did not affect; also recorded: does not affect; also recorded: without affecting

Reference: patent US11390629B2, “1,5-disubstituted 1,2,3-triazoles are inhibitors of Rac/Cdc42 GTPases” (UNIVERSITY OF PUERTO RICO, priority 2016, dated 2022)
